Data published in patent US20100003217A1, “Compounds and Pharmaceutical Compositions for the Treatment of Viral Infections” (priority 2008, published 2010).
Blank lines part the entries; values can stand above or below the molecule they belong to.

Legend:
[1] = tested on: S282T HCV replicon (184R-A cells); assay: microbe, parasite or virus in culture
Method: 3. The 184R-A cell line was derived by culturing wild-type replicon cells in the presence of 1 to 5 μM of Compound 1 for >100 days.
1. […] Huh-7 cells were seeded into column 1 of each plate at a similar density.
2. […] Eight additional 3-fold serial dilutions of each compound were prepared from the 2× stock in assay medium. Final drug concentrations ranged from 100 to 0.015 μM.
3. […] This setup was run in duplicate in each 96-well plate.
4. Cells were incubated with inhibitors for three days at 37° C./5% CO2.
1. After three days of drug treatment, media was removed from the plates via gentle tapping and the cells were fixed to the plates with 100 μL/well of 1:1 acetone:methanol.
2. After one minute of incubation at room temperature, plates were washed three times with 100 μL/well of ELISA wash solution and then blocked with 150 μL/well of 10% FBS-TNE.
3. After a one hour incubation at room temperature, plates were washed three times with 100 μL/well of ELISA wash solution, and then 100 μL/well of mouse anti-hepatitis C […] mAb (1 mg/mL stock diluted 1:1,500 in 10% FBS-TNE) was added.
4. Following 2 hours of incubation at 37° C., plates were washed three times with 100 μL/well of ELISA wash solution, and then 100 μL/well of HRP-goat anti-mouse antibody (diluted 1:4,000 in 10% FBS-TNE) was added.
4. After a one hour incubation period at 37° C., each plate was washed three times with 100 μL/well of ELISA wash solution. Color development was then initiated with 100 μL/well of OPD solution.
5. After a 30 minute incubation period in the dark at room temperature, reactions were stopped by adding 100 μL of 2NH2SO4 to each well.
6. The absorbance was measured at 490 nm on a Victor^3 V 1420 multilabel counter (Perkin Elmer). The percent inhibition of HCV replicon replication was calculated for each drug using an average of the duplicate wells.

CYP3A4 [2] = assay: Effect of CYP3A4 inhibitors (ketoconazole, ritonavir) on metabolic stability in rat liver microsomes; format: in vitro ADME; conditions: rat microsomes 1 mg/mL, 60 min, 10 μM, NADPH
Method: (§1) Incubations were conducted in a final volume of 0.1 mL per incubation time point. […] Final solvent (DMSO or methanol) concentration was maintained at 0.2%. Reactions were initiated by the addition of an NADPH regenerating system (1.3 mM NADP^+, 3.3 mM glucose-6-phosphate, 0.4 U/ml glucose-6-phosphate dehydrogenase, and 3.3 mM MgCl2, final concentrations). Incubations with no inhibitor served as control. Reactions were terminated at 30 min (monkey) or 60 min (rat and human) by the addition of 0.2 mL of stop solution (acetonitrile). The samples were vortex-mixed for 30 sec and then centrifuged at 10,000×g for 10 min. The supernatant was dried using a Labconco CentriVap concentrator and the dry residue reconstituted in water, transferred to an HPLC glass vial and analyzed by HPLC-UV method 1 (described above).
(§2) Because Compound 1 is rapidly metabolized in monkey liver microsomes, incubation conditions were adjusted by reducing protein content to 0.5 mg/mL and incubation time to 30 min. Incubation conditions for rat and human were unchanged; protein was 1 mg/mL and incubation time was 60 min.

GS4.1 cells = assay: Cytotoxicity of Compound 1 and RBV on GS4.1 cells using MTS assay (combination study); conditions: three days, 0.6× to 1.5× EC50, alone or in combination
Method: The readout of the assay was measured by the bioreduction of the yellow MTS tetrazolium compound to a purple formazan product. This conversion is mediated by NADPH or NADH in metabolically active cells and is therefore directly proportional to the number of live cells in a culture. Plates were setup as described above.
Cells were plated and treated with inhibitors using the drug matrix described above.
After three days of drug treatment, 20 μL of MTS was added to each well, and then plates were incubated at 37° C./5% CO2.

CYP3A4 [3] = target: CYP3A4 (Homo sapiens, UniProt P08684); assay: Incubation with human recombinant CYP450 supersomes, 3A4; format: in vitro ADME; conditions: CYP450 3A4 supersomes, 60 min, 10 μM, average of two experiments
Method: Supersomes—Incubations were conducted in a final volume of 0.1 mL reaction buffer (50-100 mM potassium phosphate, pH 7.4 or 100 mM Tris-HCL, pH 7.4) according to protocol provided with each CYP450 supersome. Each reaction contained […] of CYP450 supersome, 1.3 mM NADP^+, 3.3 mM glucose-6-phosphate, 0.4 U/mL glucose-6-phosphate dehydrogenase, 3.3 mM MgCl2 and 10 μM Compound 1. Following incubation for 60 min at 37° C., 100 μL of stop solution (acetonitrile:methanol; 1:1) was added and samples centrifuged for 10 min at 10,000×g. The supernatant was then dried and reconstituted in 10 mM potassium phosphate, pH 5, further transferred to an HPLC glass vial and analyzed by HPLC-UV (described above).

CYP3A4 [4] = assay: Effect of CYP3A4 inhibitors (ketoconazole, ritonavir) on metabolic stability in monkey liver microsomes; format: in vitro ADME; conditions: monkey microsomes 0.5 mg/mL, 30 min, 10 μM, NADPH
Method: as §1, §2

rat primary hepatocytes = assay: In vitro intracellular half-life of 2′-C-methyl guanosine-5′-triphosphate (Compound 7) in rat primary hepatocytes; format: in vitro ADME; conditions: for Decay of Compound 7: level in cellular extracts: rat hepatocytes Rs458, after 24 h incubation with 10 μM [^14C]-Compound 1
Method: (§3) Primary hepatocytes were incubated with 10 μM [^14C]-Compound 1 ([…]) or [^14C]-2′-C-methyl guanosine (127 DPM/μmol) for 24 hours at which time the incubation medium was removed and the cell monolayer carefully washed two times with warm (37° C.) PBS and placed back in culture with drug-free medium. At selected times up to 24 hours, the medium was removed and the cell monolayers carefully washed two times with ice-cold PBS. Following the last wash, all PBS was carefully removed and the cell monolayers processed and extracted as previously described. […]

[5] = as above; format: in vitro ADME; conditions: primary hepatocytes (cellular extracts)
Method: as §3

[6] = rat hepatocytes, [^14C]-Compound 1 removed

CYP3A4 (Homo sapiens, UniProt P08684), sequence (P08684 whole entry): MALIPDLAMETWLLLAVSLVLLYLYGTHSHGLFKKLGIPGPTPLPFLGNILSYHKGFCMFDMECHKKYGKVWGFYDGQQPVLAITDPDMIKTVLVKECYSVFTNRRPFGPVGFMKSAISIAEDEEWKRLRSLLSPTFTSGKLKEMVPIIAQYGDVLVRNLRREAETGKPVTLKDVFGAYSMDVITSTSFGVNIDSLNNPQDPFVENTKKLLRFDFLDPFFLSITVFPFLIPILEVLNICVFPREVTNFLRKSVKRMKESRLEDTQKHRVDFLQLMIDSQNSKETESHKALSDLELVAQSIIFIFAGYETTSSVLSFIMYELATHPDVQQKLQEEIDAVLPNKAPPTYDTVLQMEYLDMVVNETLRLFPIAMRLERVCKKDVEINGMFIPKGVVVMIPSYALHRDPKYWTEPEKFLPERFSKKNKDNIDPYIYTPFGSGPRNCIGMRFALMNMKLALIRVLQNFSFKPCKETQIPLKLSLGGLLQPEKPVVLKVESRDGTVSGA

SMILES: CC(C)(CO)C(=O)SCCOP(=O)(NCc1ccccc1)OC[C@H]1O[C@@H](n2cnc3c(=O)[nH]c(N)nc32)[C@](C)(O)[C@@H]1O (mixture of isomers) [Compound 1, 3-hydroxy-2,2-dimethyl-thiopropionic acid S-(2-{[(2R,3R,4R,5R)-5-(2-amino-6-oxo-1,6-dihydro-purin-9-yl)-3,4-dihydroxy-4-methyl-tetrahydro-furan-2-ylmethoxy]-benzylamino-phosphoryloxy}-ethyl) ester]
Fold shift from wild-type ([1]; 184R-A (S282T), EC50 in resistant line divided by EC50 in wild-type cells): 30 fold | EC50 ([1]; Hepatitis C virus): 9 µM | % Residual Compound 1 (CYP3A4 [2]; Ketoconazole 0.1 μM): 83% | % Residual Compound 1 (CYP3A4 [2]; Ketoconazole 1 μM): 120% | % Residual Compound 1 (CYP3A4 [2]; Ritonavir 0.1 μM): 101% | % Residual Compound 1 (CYP3A4 [2]; Ritonavir 1 μM): 123% | % Residual Compound 1 (CYP3A4 [2]; inhibitor 0 μM): 86% | in vitro cytotoxicity (MTS) (GS4.1 cells): no evidence of in vitro cytotoxicity | % Residual Compound 1 (CYP3A4 [3]): 62% | % Residual Compound 1 (CYP3A4 [4]; Ketoconazole 0.1 μM): 68% | % Residual Compound 1 (CYP3A4 [4]; Ketoconazole 1 μM): 125% | % Residual Compound 1 (CYP3A4 [4]; Ritonavir 0.1 μM): 41% | % Residual Compound 1 (CYP3A4 [4]; Ritonavir 1 μM): 122% | % Residual Compound 1 (CYP3A4 [4]; inhibitor 0 μM): 25%

Decay of Compound 7: level in cellular extracts (rat primary hepatocytes; decay time 0 h): 932 pmol/million cells | Decay of Compound 7: level in cellular extracts (rat primary hepatocytes; decay time 1 h): 954 pmol/million cells | Decay of Compound 7: level in cellular extracts (rat primary hepatocytes; decay time 4 h): 811 pmol/million cells | Decay of Compound 7: level in cellular extracts (rat primary hepatocytes; decay time 8 h): 545 pmol/million cells | Decay of Compound 7: level in cellular extracts (rat primary hepatocytes; decay time 24 h): 83.0 pmol/million cells | Compound 7 levels after 24 hours without drug (rat primary hepatocytes; [6]): 83 pmol/million cells | reduction of Compound 7 levels after 24 hours without drug (rat primary hepatocytes; [6]): 91% | Compound 7 levels at time zero (rat primary hepatocytes; rat hepatocytes, after 24 h with 10 μM [^14C]-Compound 1): 932 pmol/million cells | half-life at 10 μM ([5]; rat hepatocytes Rs458, after 24 h incubation with 10 μM [^14C]-Compound 1, linear regression): 6.61 h | half-life at 10 μM ([5]; rat hepatocytes, following [^14C]-Compound 1): 6.61 h
SMILES: C[C@@]1(O)[C@H](O)[C@@H](COP(=O)(O)OP(=O)(O)OP(=O)(O)O)O[C@H]1n1cnc2c(=O)[nH]c(N)nc21 [Compound 7, [(2R)-2-methyl-β-D-ribofuranosyl]guanine 5′-triphosphate]
